Consider 21 compounds from patent publication US4871771A, “Leukotriene antagonists” (SmithKline Beckman Corporation, priority 1988, dated 1989).

Each structure is given as a SMILES string.

The target in assay [1] is T1, [^3 H]-LTB4 binding sites on human U937 cell membranes (Homo sapiens, UniProt Q15722).
T1 construct: Harvested U937 cells were washed with 50 mM Tris-HCl; endogenous in cells; host or cells: U937 cells (membrane-enriched fraction)
Description: Receptor binding affinity: competition for [3H]-LTB4 binding sites on human U937 cell membranes. To be noted: [3H]-LTB4 about 0.2 nM, 25°, 30 minutes.

The target of assay [2] is T2, LTB4 Induced Ca^2 + flux (U937 cells) (Homo sapiens, UniProt Q15722).
T2 construct: endogenous in cells; host or cells: U937 cells, DMSO-differentiated, intact
T2 sequence (Q15722 whole entry): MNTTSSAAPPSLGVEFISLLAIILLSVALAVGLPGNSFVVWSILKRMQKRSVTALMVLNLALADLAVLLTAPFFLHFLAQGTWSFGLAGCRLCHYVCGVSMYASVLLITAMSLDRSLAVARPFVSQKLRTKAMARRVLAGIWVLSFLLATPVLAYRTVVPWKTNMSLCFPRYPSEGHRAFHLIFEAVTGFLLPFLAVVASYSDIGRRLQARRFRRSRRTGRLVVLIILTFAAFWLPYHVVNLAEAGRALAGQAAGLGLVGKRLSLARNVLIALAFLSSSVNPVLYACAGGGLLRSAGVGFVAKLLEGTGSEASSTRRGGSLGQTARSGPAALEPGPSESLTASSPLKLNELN
Description: LTB4 induced calcium mobilization (Ca2+ flux) in U937 cells measured with fura-2. The format is cell-based. On the procedure: The methods employed were as follows.
Cells were grown both in T-flasks and in Spinner culture.
Harvested cells were resuspended at 2×10^6 cells/ml in Krebs Ringer Hensilet buffer containing 0.1% BSA (RIA grade), 1.1 mM MgSO4, 1.0 mM CaCl2 and 5 mM HEPES (pH 7.4, buffer B). The diacetomethoxy ester of fura-2 (fura-2/AM) was added to a final concentration of 2 uM and cells incubated in the dark for 30 minutes at 37° C. The cells were centrifuged at 800×g for 10 minutes and resuspended at 2×10^6 cells/ml in fresh buffer B and incubated at 37° C. for 20 minutes to allow for complete hydrolysis of entrapped ester. The cells were centrifuged at 800×g for 10 minutes and resuspended in cold fresh buffer B at 5×10^6 cells/ml. Cells were maintained on ice in the dark until used for fluorescent measurements.
The fluorescence of fura-2 containing U937 cells was measured with a fluorometer designed by the Johnson Foundation Biomedical Instrumentation Group. Fluorometer is equipped with temperature control and a magnetic stirrer under the cuvette holder. […] All experiments were performed at 37° C. with constant mixing.
U937 cells were diluted with fresh buffer to a concentration of 1×10^6 cells/ml and maintained in the dark on ice. Aliquots (2 ml) of the cell suspension were put into 4 ml cuvettes and the temperature brought up to 37° C. (maintained in 37° C. water bath for 10 min). Cuvettes were transferred to the fluorometer and fluorescence measured for about one minute before addition of stimulants or antagonists and followed for about 2 minutes post stimulus. Agonists and antagonists were added as 2 ul aliquots.
Antagonists were added first to the cells in the fluorometer in order to detect potential agonist activity. […] [Ca^2+ ]i was calculated using the following formula: [formula] F was the maximum relative fluorescence measurement of the sample. Fmax was determined by lysing the cells with 10 ul of 10% Triton X-100 (final Concentration 0.02%). After Fmax was determined 67 ul of 100 mM EGTA solution (pH 10) was added to totally chelate the Ca^2+ and quench the fura-2 signal and obtain the Fmin. […] The Ki for calcium mobilization was determined using the formula: [formula]
A general note: Calcium assays in cells follow changes in intracellular calcium, usually with a dye or a luminescent sensor.

T1 sequence (Q15722 whole entry): as above

Regarding `CCCCCCCCCCCCc1ccccc1C(SCCC(=O)O)SCCC(=O)O`, the Ki (as a rule, a measure of affinity in units of concentration, obtained from inhibition or displacement) in assay [1] worked out at 6.5 µM.
In turn, `CCCCCCCCCCCOc1ccccc1C(SCCC(=O)O)SCCC(=O)O` showed a Ki in assay [1] of 5.3 µM.
As to `CCCCCCCCCCCOc1ccc(Br)cc1C(SCCC(=O)O)SCCC(=O)O`, the Ki in assay [2] came out at 5.6 µM; in assay [1] it was 4.2 µM.
In assay [1], `CCCCCCCCCCC#Cc1ccccc1C(SCCC(=O)O)SCCC(=O)O` displayed a Ki of 7 µM.
With `CCCCCCCCCCCOc1ccc([N+](=O)[O-])cc1C(SCCC(=O)O)SCCC(=O)O`, the Ki in assay [2] was found to be 5 µM; in assay [1] it was 2.2 µM.
For `O=C(O)CCSC(SCCC(=O)O)c1ccccc1CCCCCCCCc1ccccc1`, the Ki in assay [2] was 7 µM; in assay [1] it was 4.4 µM.
`CCCCCCCCCCCCc1ccccc1C(SCCC(=O)O)[S+]([O-])CCC(=O)O` (stereo not drawn): the affinity in assay [1] corresponds to a Ki of 5.3 µM.
In turn, `CCCCCCCCCC/C=C\c1ccccc1C(SCCC(=O)O)SCCC(=O)O` had a Ki in assay [1] of 7.3 µM.
Take `CCCCCCCCCCCOc1ccc(O)cc1C(SCCC(=O)O)SCCC(=O)O`: the Ki in assay [1] was 6 µM.
For `O=C(O)CCSC(SCCC(=O)O)c1cc(C(F)(F)F)ccc1CCCCCCCCc1ccccc1`, the affinity in assay [1] corresponds to a Ki of 9.6 µM.
On to `CCCCCCCCCC/C=C/c1ccccc1C(SCCC(=O)O)SCCC(=O)O`, for which affinity in assay [1] was put at a Ki of 4.3 µM.
Regarding `O=C(O)CCSC(SCCC(=O)O)c1cccc(CCCCCCCCc2ccccc2)c1`, the values for the Ki in assay [2] and in assay [1] were 5.2 µM and 2.1 µM, respectively.
For `O=C(O)CCSC(SCCC(=O)O)c1ccc(C(F)(F)F)cc1CCCCCCCCc1ccccc1`, the values for the Ki in assay [2] and in assay [1] were 8.7 µM and 1.3 µM, respectively.
In turn, `O=C(O)CCSC(SCCC(=O)O)c1ccccc1CCCCCCc1ccccc1` had a Ki in assay [1] of 4.5 µM.
In the case of `COc1ccc(SCCCCCCCc2ccccc2C(SCCC(=O)O)SCCC(=O)O)cc1`, the Ki was determined as 7.6 µM in assay [2] and 1.2 µM in assay [1].
For the compound `O=C(O)CCSC(SCCC(=O)O)c1ccccc1CCCCCCCCCCc1ccccc1`, the Ki is 4.8 µM in assay [2] and 11 µM in assay [1].
For the compound `C#CCCCCCCCCCOc1ccccc1C(SCCC(=O)O)SCCC(=O)O`, the affinity in assay [1] corresponds to a Ki of 10 µM.
As to `O=C(O)CCSC(SCCC(=O)O)c1ccccc1OCCCCCCCc1ccccc1`, in assay [1], the Ki was 5.3 µM.
Regarding `O=C(O)CCSC(SCCC(=O)O)c1ccccc1CCCCCCCSc1ccc(Br)cc1`, the Ki came to 6.7 µM in assay [2] and 2.8 µM in assay [1].
As to `O=C(O)CCSC(SCCC(=O)O)c1ccccc1CCCCCCCSc1ccc(F)cc1`, the Ki amounted to 6.4 µM in assay [2] and 3.3 µM in assay [1].
Regarding `O=C(O)CCSC(SCCC(=O)O)c1ccccc1CCCCCCCCCCCC(F)(F)F`, the Ki in assay [2] worked out at 7.8 µM.
